Converted amounts (≈) assume the structure as drawn.
Assays:
[1] = tested on: Streptococcus pyogenes; assay: Antibacterial activity against Streptococcus pyogenes 308A; assay type: functional
[2] = tested on: Staphylococcus aureus; assay: Antibacterial activity against Staphylococcus aureus 285; assay type: functional
[3] = tested on: Enterobacter cloacae; assay: Antibacterial activity against Enterobactor cloacae 1321E; assay type: functional
[4] = tested on: Salmonella typhimurium; assay: Antibacterial activity against Salmonella Typhimurium; assay type: functional, Salmonella enterica subsp. enterica serovar Typhimurium; details: Salmonella enterica
[5] = tested on: Pseudomonas aeruginosa; assay: Antibacterial activity against Pseudomonas aeruginosa 9027; assay type: functional
[6] = tested on: Escherichia coli; assay: Antibacterial activity against Escherichia coli TEM; assay type: functional
[7] = tested on: Streptococcus pyogenes; assay: Antibacterial activity against Streptococcus pyogenes 77A; assay type: functional
[8] = tested on: Klebsiella aerogenes; assay: Antibacterial activity against Klebsiella aerogenes 1522E; assay type: functional
[9] = tested on: Staphylococcus aureus; assay: Antibacterial activity against Staphylococcus aureus SG511; assay type: functional
[10] = tested on: Escherichia coli; assay: Antibacterial activity against Escherichia coli DC2; assay type: functional
[11] = tested on: Pseudomonas aeruginosa; assay: Antibacterial activity against Pseudomonas aeruginosa 77/2; assay type: functional
[12] = tested on: Salmonella; assay: Antibacterial activity against Salmonella orion; assay type: functional
[13] = tested on: Serratia marcescens; assay: Antibacterial activity against Serratia marcescens 370; assay type: functional
[14] = tested on: Enterococcus faecium; assay: Antibacterial activity against Streptococcus faecium 77A; assay type: functional
[15] = Antibacterial activity against Salmonella oranienberg; assay type: functional, Salmonella enterica subsp. enterica serovar Oranienburg; details: Salmonella enterica
[16] = tested on: Providencia rettgeri; assay: Antibacterial activity against Proteus rettgeri 937; assay type: functional
[17] = tested on: Pseudomonas aeruginosa; assay: Antibacterial activity against Pseudomonas aeruginosa 110/2; assay type: functional
[18] = tested on: Staphylococcus aureus; assay: Antibacterial activity against Staphylococcus aureus 209P; assay type: functional
[19] = tested on: Enterococcus durans; assay: Antibacterial activity against Streptococcus durans D; assay type: functional
[20] = tested on: Priestia megaterium; assay: Antibacterial activity against Bacillus megaterium; assay type: functional
[21] = tested on: Enterobacter cloacae; assay: Antibacterial activity against Enterobacter cloacae 417; assay type: functional
[22] = Antibacterial activity against Salmonella give; assay type: functional, Salmonella enterica subsp. enterica serovar Give; details: Salmonella enterica
[23] = tested on: Escherichia coli; assay: Antibacterial activity against Escherichia coli 0114; assay type: functional
[24] = tested on: Corynebacterium diphtheriae; assay: Antibacterial activity against Corynebacterium diphtheriae; assay type: functional
[25] = tested on: Escherichia coli; assay: Antibacterial activity against Escherichia coil 1507; assay type: functional
[26] = tested on: Pasteurella multocida; assay: Antibacterial activity against Pasteurella multocida; assay type: functional
[27] = tested on: Salmonella typhi; assay: Antibacterial activity against Salmonella typhi; assay type: functional, Salmonella enterica subsp. enterica serovar Typhi; details: Salmonella enterica
[28] = tested on: Serratia marcescens; assay: Antibacterial activity against Serratia marcescens 6093; assay type: functional
[29] = tested on: Providencia rettgeri; assay: Antibacterial activity against Proteus rettgeri 936; assay type: functional
[30] = tested on: Burkholderia cepacia; assay: Antibacterial activity against Pseudomonas cepacia; assay type: functional
[31] = tested on: Bacillus subtilis; assay: Antibacterial activity against Bacillus subtilts ATCC 6633; assay type: functional
[32] = tested on: Trueperella pyogenes; assay: Antibacterial activity against Corynebacterium pyogenes; assay type: functional
[33] = tested on: Escherichia coli; assay: Antibacterial activity against Escherichia coli 086; assay type: functional
[34] = tested on: Klebsiella pneumoniae; assay: Antibacterial activity against Klebsiella pneumonise 477; assay type: functional
[35] = tested on: Staphylococcus aureus; assay: Antibacterial activity against Staphylococcus aureus giorgio; assay type: functional
[36] = tested on: Proteus mirabilis; assay: Antibacterial activity against Proteus mirabilis 174/3; assay type: functional
[37] = tested on: Enterobacter cloacae; assay: Antibacterial activity against Enterobacter cloacae; assay type: functional
[38] = tested on: Proteus mirabilis; assay: Antibacterial activity against Proteus mirabilis 112/3; assay type: functional
[39] = tested on: Micrococcus luteus; assay: Antibacterial activity against Micrococcus luteus ATCC 9341; assay type: functional
[40] = tested on: Escherichia coli; assay: Antibacterial activity against Escherichia coil V6311/65; assay type: functional
[41] = tested on: Streptococcus agalactiae; assay: Antibacterial activity against Streptococcus agalactiae B; assay type: functional
[42] = tested on: Staphylococcus aureus; assay: Antibacterial activity against Staphylococcus aureus 503; assay type: functional
[43] = tested on: Proteus vulgaris; assay: Antibacterial activity against Proteus vulgaris 868; assay type: functional
[44] = tested on: Pseudomonas aeruginosa; assay: Antibacterial activity against Pseudomonas aeruginosa 880/2; assay type: functional
[45] = tested on: Serratia marcescens; assay: Antibacterial activity against Serratia marcescens 14273; assay type: functional
[46] = tested on: Escherichia coli; assay: Antibacterial activity against Escherichia coli 0126; assay type: functional

CO/N=C(\CNC(N)=O)[C@@H]1C[C@H](SC2=C(C(=O)O)N3C(=O)[C@H]([C@@H](C)O)[C@H]3[C@H]2C)CN1
MIC [1]: < 0.01 µg/mL | MIC [2]: 0.195 µg/mL (≈ 0.442 µM) | MIC [3]: 0.049 µg/mL (≈ 0.111 µM) | MIC [4]: 0.098 µg/mL (≈ 0.222 µM) | MIC [5]: 1.56 µg/mL (≈ 3.53 µM) | MIC [6]: 0.049 µg/mL (≈ 0.111 µM) | MIC [7]: 0.013 µg/mL (≈ 0.0294 µM) | MIC [8]: 0.195 µg/mL (≈ 0.442 µM) | MIC [9]: 0.098 µg/mL (≈ 0.222 µM) | MIC [10]: 0.049 µg/mL (≈ 0.111 µM)

CNS(=O)(=O)NC/C(=N\OC)[C@@H]1C[C@H](SC2=C(C(=O)O)N3C(=O)[C@H]([C@@H](C)O)[C@H]3[C@H]2C)CN1
MIC [11]: 1.56 µg/mL (≈ 3.17 µM) | MIC [12]: 0.1 µg/mL (≈ 0.203 µM) | MIC [13]: 0.2 µg/mL (≈ 0.407 µM) | MIC [1]: < 0.01 µg/mL | MIC [14]: < 0.01 µg/mL | MIC [15]: 0.2 µg/mL (≈ 0.407 µM) | MIC [2]: 0.098 µg/mL (≈ 0.199 µM) | MIC [16]: 0.4 µg/mL (≈ 0.814 µM) | MIC [17]: 0.8 µg/mL (≈ 1.63 µM) | MIC [18]: 0.03 µg/mL (≈ 0.061 µM) | MIC [3]: 0.013 µg/mL (≈ 0.0264 µM) | MIC [19]: 0.1 µg/mL (≈ 0.203 µM) | MIC [4]: 0.025 µg/mL (≈ 0.0509 µM) | MIC [20]: 0.05 µg/mL (≈ 0.102 µM) | MIC [21]: 0.05 µg/mL (≈ 0.102 µM) | MIC [22]: 0.1 µg/mL (≈ 0.203 µM) | MIC [23]: 0.03 µg/mL (≈ 0.061 µM) | MIC [24]: 0.01 µg/mL (≈ 0.0203 µM) | MIC [5]: 1.56 µg/mL (≈ 3.17 µM) | MIC [25]: 0.05 µg/mL (≈ 0.102 µM) | MIC [26]: 0.05 µg/mL (≈ 0.102 µM) | MIC [27]: 0.03 µg/mL (≈ 0.061 µM) | MIC [6]: 0.025 µg/mL (≈ 0.0509 µM) | MIC [7]: < 0.01 µg/mL | MIC [28]: 0.2 µg/mL (≈ 0.407 µM) | MIC [29]: 0.4 µg/mL (≈ 0.814 µM) | MIC [30]: 0.4 µg/mL (≈ 0.814 µM) | MIC [8]: 0.025 µg/mL (≈ 0.0509 µM) | MIC [31]: 0.03 µg/mL (≈ 0.061 µM) | MIC [32]: 0.01 µg/mL (≈ 0.0203 µM) | MIC [33]: 0.03 µg/mL (≈ 0.061 µM) | MIC [34]: 0.03 µg/mL (≈ 0.061 µM) | MIC [35]: 0.03 µg/mL (≈ 0.061 µM) | MIC [9]: 0.049 µg/mL (≈ 0.0997 µM) | MIC [36]: 0.2 µg/mL (≈ 0.407 µM) | MIC [37]: 0.01 µg/mL (≈ 0.0203 µM) | MIC [10]: 0.013 µg/mL (≈ 0.0264 µM) | MIC [38]: 0.2 µg/mL (≈ 0.407 µM) | MIC [39]: 0.01 µg/mL (≈ 0.0203 µM) | MIC [40]: 0.05 µg/mL (≈ 0.102 µM) | MIC [41]: 0.03 µg/mL (≈ 0.061 µM) | MIC [42]: 0.03 µg/mL (≈ 0.061 µM) | MIC [43]: 0.4 µg/mL (≈ 0.814 µM) | MIC [44]: 0.4 µg/mL (≈ 0.814 µM) | MIC [45]: 0.4 µg/mL (≈ 0.814 µM) | MIC [46]: 0.03 µg/mL (≈ 0.061 µM)

CO/N=C(\CNS(=O)(=O)N(C)C)[C@@H]1C[C@H](SC2=C(C(=O)O)N3C(=O)[C@H]([C@@H](C)O)[C@H]3[C@H]2C)CN1
MIC [1]: 0.025 µg/mL (≈ 0.0494 µM) | MIC [2]: 0.195 µg/mL (≈ 0.386 µM) | MIC [3]: 0.195 µg/mL (≈ 0.386 µM) | MIC [4]: 0.195 µg/mL (≈ 0.386 µM) | MIC [5]: 6.25 µg/mL (≈ 12.4 µM) | MIC [6]: 0.098 µg/mL (≈ 0.194 µM) | MIC [7]: 0.013 µg/mL (≈ 0.0257 µM) | MIC [8]: 0.391 µg/mL (≈ 0.773 µM) | MIC [9]: 0.195 µg/mL (≈ 0.386 µM) | MIC [10]: 0.098 µg/mL (≈ 0.194 µM)
